The text below walks through data of patent US20240208992A1, “MACROCYCLES AS CFTR MODULATORS” (Idorsia Pharmaceuticals Ltd, priority 2021, published 2024).

For data set [1] the following is noted: the molecule shown is the open-chain precursor; amide bond; 17-membered ring; 2 steps.
The conditions of data set [2]: amide bond.
The conditions of data set [3]: amide bond, 17-membered ring.
For data set [4], the target named is human F508del-CFTR (Homo sapiens, UniProt P13569, DEL508-508). Nature of the data set: F508del-CFTR cell surface expression (corrector activity), DiscoveRx ß-galactosidase complementation chemiluminescence assay in recombinant U2OS cell line.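 On all read-outs here: U2OS cells co-expressing ProLink-tagged F508del-CFTR and a membrane-anchored enzyme acceptor, where more surface CFTR restores β-galactosidase activity measured by chemiluminescence.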 The note with it: for EC50: EC50, F508del-CFTR cell surface expression; for Emax: U2OS.
Sequence of human F508del-CFTR (P13569 with tags, fused parts or gaps DEL508-508): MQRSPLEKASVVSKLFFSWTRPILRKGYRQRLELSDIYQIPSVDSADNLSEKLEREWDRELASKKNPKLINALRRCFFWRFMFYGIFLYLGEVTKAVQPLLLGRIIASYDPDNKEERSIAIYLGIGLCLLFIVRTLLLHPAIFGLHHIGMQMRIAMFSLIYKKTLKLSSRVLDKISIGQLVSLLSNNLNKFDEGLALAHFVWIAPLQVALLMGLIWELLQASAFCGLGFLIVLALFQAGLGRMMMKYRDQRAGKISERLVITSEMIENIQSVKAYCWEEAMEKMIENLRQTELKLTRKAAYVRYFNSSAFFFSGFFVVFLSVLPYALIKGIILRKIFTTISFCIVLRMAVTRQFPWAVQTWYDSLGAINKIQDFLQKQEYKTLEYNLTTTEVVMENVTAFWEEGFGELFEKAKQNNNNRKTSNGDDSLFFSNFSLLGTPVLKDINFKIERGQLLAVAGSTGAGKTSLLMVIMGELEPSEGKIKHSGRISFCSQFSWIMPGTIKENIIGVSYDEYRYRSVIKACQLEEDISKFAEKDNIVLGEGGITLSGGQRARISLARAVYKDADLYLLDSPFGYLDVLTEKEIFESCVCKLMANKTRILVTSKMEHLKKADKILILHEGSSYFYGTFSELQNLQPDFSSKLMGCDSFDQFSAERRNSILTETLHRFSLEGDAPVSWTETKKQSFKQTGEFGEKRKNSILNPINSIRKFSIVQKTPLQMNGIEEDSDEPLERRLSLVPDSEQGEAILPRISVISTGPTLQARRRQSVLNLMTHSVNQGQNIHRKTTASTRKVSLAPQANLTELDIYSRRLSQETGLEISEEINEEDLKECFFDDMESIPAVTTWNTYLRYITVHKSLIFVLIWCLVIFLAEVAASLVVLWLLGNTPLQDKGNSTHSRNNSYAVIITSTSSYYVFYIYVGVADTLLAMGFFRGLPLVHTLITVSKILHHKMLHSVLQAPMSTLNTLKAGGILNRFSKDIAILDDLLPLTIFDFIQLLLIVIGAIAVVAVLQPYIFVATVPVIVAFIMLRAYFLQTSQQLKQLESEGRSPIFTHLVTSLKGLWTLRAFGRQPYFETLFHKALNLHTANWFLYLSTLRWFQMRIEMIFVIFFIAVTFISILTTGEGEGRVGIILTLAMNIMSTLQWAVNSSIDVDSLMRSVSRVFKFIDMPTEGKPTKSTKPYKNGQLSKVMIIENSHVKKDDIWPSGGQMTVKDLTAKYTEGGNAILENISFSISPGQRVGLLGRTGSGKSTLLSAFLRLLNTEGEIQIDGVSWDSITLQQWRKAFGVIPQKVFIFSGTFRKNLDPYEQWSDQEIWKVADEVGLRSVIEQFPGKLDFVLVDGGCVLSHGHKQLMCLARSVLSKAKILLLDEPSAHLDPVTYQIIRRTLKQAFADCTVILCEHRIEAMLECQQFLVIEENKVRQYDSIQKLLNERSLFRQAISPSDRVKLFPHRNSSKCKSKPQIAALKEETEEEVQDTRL
[5] abbreviates: U2OS cells, 16h compound incubation, geomean of several measurements.
[6] abbreviates: in relation to the Emax of the corrector lumacaftor (=100%), U2OS cells, 16h compound incubation, arithmetic mean.

Read-outs that look alike come from different tables or passages of the source.

The molecule `CC(C)C[C@@H](C(=O)N1CCCC[C@@H]1C(=O)N[C@@H](COc1cnc2ccccc2c1C(=O)N[C@@H](CC(=O)OC(C)(C)C)C(=O)OCc1ccccc1)Cc1ccccc1)N(C)C(=O)OC(C)(C)C` showed a ring closure, isolated yield in data set [1] of 58%.
`CC(C)C[C@H]1C(=O)N(CCC(C)(C)C)CC(=O)N[C@H](Cc2ccccc2)COc2cc3c(cc2C(=O)N[C@H](C(=O)O)CC(=O)N1C)OCO3` displayed a ring closure, yield of all isomers in data set [2] (from CN[C@@H](CC(C)C)C(=O)N(CCC(C)(C)C)CC(=O)N[C@@H](COc1cc2c(cc1C(=O)N[C@@H](CC(=O)O)C(=O)O)OCO2)Cc1ccccc1, pentafluorophenyl diphenylphosphinate (FDPP), DMF/DCM, 67.5 mM, 5.0 h, 11 steps) of 26%.
With `CC(C)C[C@H]1C(=O)N(C[C@H]2COc3ccccc3C2)CC(=O)N[C@H](Cc2ccccc2)COc2ccc3ccccc3c2C(=O)N[C@H](C(=O)NCCc2ccc3c(c2)OCO3)CC(=O)N1C`, the ring closure, yield after HPLC in data set [3] (from CN[C@@H](CC(C)C)C(=O)N(CC(=O)N[C@@H](COc1ccc2ccccc2c1C(=O)N[C@@H](CC(=O)O)C(=O)NCCc1ccc2c(c1)OCO2)Cc1ccccc1)C[C@H]1COc2ccccc2C1, HATU/DIEA, DMF, 82.0 mM, 25.0 °C) came to 97%.
In turn, `COc1cc2c(cc1OC)C(=O)N[C@H](C(=O)OCc1ccccc1)CC(=O)N(C)[C@@H](CC1CC1)C(=O)N(CCC1CCCCC1)CC(=O)N[C@H](Cc1ccccc1)CO2` yielded a ring closure, yield of all isomers in data set [2] (from CN[C@@H](CC1CC1)C(=O)N(CCC1CCCCC1)CC(=O)N[C@@H](COc1cc(OC)c(OC)cc1C(=O)N[C@@H](CC(=O)O)C(=O)OCc1ccccc1)Cc1ccccc1, FDPP, DCM, 50.0 °C, 12.0 h) of 13%. Also, in data set [3] (from CN[C@@H](CC1CC1)C(=O)N(CCC1CCCCC1)CC(=O)N[C@@H](COc1cc(OC)c(OC)cc1C(=O)N[C@@H](CC(=O)O)C(=O)OCc1ccccc1)Cc1ccccc1, FDPP, DCM, 50.0 °C), the ring closure, yield after HPLC turned out to be 13%.
`COc1nccc2c1C(=O)N[C@H](C(=O)NCCc1nc(C3CC3)no1)CC(=O)N(C)[C@@H](CC(C)C)C(=O)N(C)C(COCc1ccccc1)C(=O)N[C@H](Cc1ccccc1)CO2` (stereo partly drawn): the ring closure, yield after HPLC in data set [3] (from CN[C@@H](CC(C)C)C(=O)N(C)C(COCc1ccccc1)C(=O)N[C@@H](COc1ccnc(OC)c1C(=O)N[C@@H](CC(=O)O)C(=O)NCCc1nc(C2CC2)no1)Cc1ccccc1, HATU/DIEA, DMF, 60.0 mM) worked out at 82%.
Consider `COc1cccc(CCNC(=O)[C@@H]2CC(=O)N(C)[C@@H](CC(C)C)C(=O)N(C)[C@H](COCc3ccccc3)C(=O)N[C@H](Cc3ccccc3)COc3ccc4ccccc4c3C(=O)N2)c1` [Example 713, (3S,7S,10R,13R)-13-benzyl-10-((benzyloxy)methyl)-7-isobutyl-N-(3-methoxyphenethyl)-6,9-dimethyl-1,5,8,11-tetraoxo-1,2,3,4,5,6,7,8,9,10,11,12,13,14-tetradecahydronaphtho[1,2-p][1]oxa[4,7,10,14]tetraazacycloheptadecine-3-carboxamide], for which the ring closure, yield after HPLC in data set [3] (from CN[C@@H](CC(C)C)C(=O)N(C)[C@H](COCc1ccccc1)C(=O)N[C@@H](COc1ccc2ccccc2c1C(=O)N[C@@H](CC(=O)O)C(=O)NCCc1cccc(OC)c1)Cc1ccccc1, HATU/DIEA, DMF, 41.0 mM, 25.0 °C) was found to be 82%. Moreover, the EC50 in data set [4] (U2OS cells, 16h compound incubation, geomean values) is 0.031 µM. In addition, the Emax in data set [4] (in relation to Emax of corrector lumacaftor (=100%), arithmetic mean values) was 432%.
With `COc1cc(CCNC(=O)[C@@H]2CC(=O)N(C)[C@@H](CC(C)C)C(=O)N(C)[C@H](CC3CCC3)C(=O)N[C@H](Cc3ccccc3)COc3cc(C)nc(OC)c3C(=O)N2)on1` [Example 980, (3R,6R,9S,13S)-3-benzyl-6-(cyclobutylmethyl)-9-isobutyl-16-methoxy-N-(2-(3-methoxyisoxazol-5-yl)ethyl)-7,10,18-trimethyl-5,8,11,15-tetraoxo-2,3,4,5,6,7,8,9,10,11,12,13,14,15-tetradecahydropyrido[3,4-p][1]oxa[4,7,10,14]tetraazacycloheptadecine-13-carboxamide], in data set [4] (setting [5]), the EC50 was determined as 0.053 µM. In data set [4] (setting [6]), the Emax was 435%.
In the case of `COc1cc(CCNC(=O)[C@@H]2CC(=O)N(C)[C@@H](CC(C)C)C(=O)N(C)[C@H](Cc3nc(C(F)(F)F)no3)C(=O)N[C@H](Cc3ccccc3)COc3c[n+]([O-])c4ccc(F)cc4c3C(=O)N2)on1` [Example 981, (3S,7S,10R,13R)-13-benzyl-20-fluoro-7-isobutyl-3-((2-(3-methoxyisoxazol-5-yl)ethyl)carbamoyl)-6,9-dimethyl-1,5,8,11-tetraoxo-10-((3-(trifluoromethyl)-1,2,4-oxadiazol-5-yl)methyl)-1,2,3,4,5,6,7,8,9,10,11,12,13,14-tetradecahydro-[1]oxa[4,7,10,14]tetraazacycloheptadecino[17,16-c]quinoline 17-oxide], the EC50 in data set [4] (setting [5]) stood at 0.133 µM. For the same molecule, the Emax in data set [4] (setting [6]) came out at 448%.
Regarding `COc1cc(CCNC(=O)[C@@H]2CC(=O)N(C)[C@@H](CC(C)C)C(=O)N(C)[C@H](Cc3nc(C(F)(F)F)no3)C(=O)N[C@H](Cc3ccccc3)COc3cc(C)c4c(ccc[n+]4[O-])c3C(=O)N2)on1` [Example 982, (3S,7S,10R,13R)-13-benzyl-7-isobutyl-3-((2-(3-methoxyisoxazol-5-yl)ethyl)carbamoyl)-6,9,17-trimethyl-1,5,8,11-tetraoxo-10-((3-(trifluoromethyl)-1,2,4-oxadiazol-5-yl)methyl)-1,2,3,4,5,6,7,8,9,10,11,12,13,14-tetradecahydro-[1]oxa[4,7,10,14]tetraazacycloheptadecino[16,17-f]quinoline 18-oxide], the EC50 in data set [4] (setting [5]) came out at 0.236 µM. Besides, in data set [4] (setting [6]), the Emax was found to be 530%.
As to `COc1noc(CCNC(=O)[C@@H]2CC(=O)N(C)[C@@H](CC(C)C)C(=O)N(C)[C@H](Cc3nc(C(F)(F)F)no3)C(=O)N[C@H](Cc3ccccc3)COc3ccc4c(cc(F)c[n+]4[O-])c3C(=O)N2)n1` [Example 983, (3S,7S,10R,13R)-13-benzyl-20-fluoro-7-isobutyl-3-((2-(3-methoxy-1,2,4-oxadiazol-5-yl)ethyl)carbamoyl)-6,9-dimethyl-1,5,8,11-tetraoxo-10-((3-(trifluoromethyl)-1,2,4-oxadiazol-5-yl)methyl)-1,2,3,4,5,6,7,8,9,10,11,12,13,14-tetradecahydro-[1]oxa[4,7,10,14]tetraazacycloheptadecino[16,17-f]quinoline 18-oxide], the EC50 in data set [4] (setting [5]) worked out at 0.27 µM. For the same molecule, the Emax in data set [4] (setting [6]) was 506%.
As to “(7R,13S,17S)-7-Benzyl-11-(3,3-dimethylbutyl)-13-isobutyl-14-methyl-9,12,15,19-tetraoxo-6,7,8,9,10,11,12,13,14,15,16,17,18,19-tetradecahydro-[1,3]dioxolo[4′,5′:4,5]benzo[1,2-p][1]oxa[4,7,10,14]tetraazacycloheptadecine-17-carboxylic acid”, the ring closure, yield after HPLC in data set [3] (FDPP, DMF/DCM, resin, 67.5 mM, with chain assembly) was 26%.

Broadly, the EC50 is the concentration that produces a half-maximal response. Usually Emax stands for the size of the effect at its maximum, as opposed to the concentration needed.
